We go through 29 molecules from patent US20240316047A1, “INHIBITORS OF RNA HELICASE DHX9 AND USES THEREOF” (ACCENT THERAPEUTICS, INC., priority 2022, published 2024).

Molecules are shown by their SMILES.

The target in the experiment is Human recombinant DHX9 protein (Homo sapiens (Human), UniProt Q08211). Briefly: DHX9 ATPase assay (ADP-Glo). It counts as biochemical. Particulars: for IC50: read-out: DHX9 Biochemical Inflection Point. Background: ADP-Glo turns the ADP formed in a reaction into a luminescent signal.
Chain of Human recombinant DHX9 protein (Q08211 whole entry): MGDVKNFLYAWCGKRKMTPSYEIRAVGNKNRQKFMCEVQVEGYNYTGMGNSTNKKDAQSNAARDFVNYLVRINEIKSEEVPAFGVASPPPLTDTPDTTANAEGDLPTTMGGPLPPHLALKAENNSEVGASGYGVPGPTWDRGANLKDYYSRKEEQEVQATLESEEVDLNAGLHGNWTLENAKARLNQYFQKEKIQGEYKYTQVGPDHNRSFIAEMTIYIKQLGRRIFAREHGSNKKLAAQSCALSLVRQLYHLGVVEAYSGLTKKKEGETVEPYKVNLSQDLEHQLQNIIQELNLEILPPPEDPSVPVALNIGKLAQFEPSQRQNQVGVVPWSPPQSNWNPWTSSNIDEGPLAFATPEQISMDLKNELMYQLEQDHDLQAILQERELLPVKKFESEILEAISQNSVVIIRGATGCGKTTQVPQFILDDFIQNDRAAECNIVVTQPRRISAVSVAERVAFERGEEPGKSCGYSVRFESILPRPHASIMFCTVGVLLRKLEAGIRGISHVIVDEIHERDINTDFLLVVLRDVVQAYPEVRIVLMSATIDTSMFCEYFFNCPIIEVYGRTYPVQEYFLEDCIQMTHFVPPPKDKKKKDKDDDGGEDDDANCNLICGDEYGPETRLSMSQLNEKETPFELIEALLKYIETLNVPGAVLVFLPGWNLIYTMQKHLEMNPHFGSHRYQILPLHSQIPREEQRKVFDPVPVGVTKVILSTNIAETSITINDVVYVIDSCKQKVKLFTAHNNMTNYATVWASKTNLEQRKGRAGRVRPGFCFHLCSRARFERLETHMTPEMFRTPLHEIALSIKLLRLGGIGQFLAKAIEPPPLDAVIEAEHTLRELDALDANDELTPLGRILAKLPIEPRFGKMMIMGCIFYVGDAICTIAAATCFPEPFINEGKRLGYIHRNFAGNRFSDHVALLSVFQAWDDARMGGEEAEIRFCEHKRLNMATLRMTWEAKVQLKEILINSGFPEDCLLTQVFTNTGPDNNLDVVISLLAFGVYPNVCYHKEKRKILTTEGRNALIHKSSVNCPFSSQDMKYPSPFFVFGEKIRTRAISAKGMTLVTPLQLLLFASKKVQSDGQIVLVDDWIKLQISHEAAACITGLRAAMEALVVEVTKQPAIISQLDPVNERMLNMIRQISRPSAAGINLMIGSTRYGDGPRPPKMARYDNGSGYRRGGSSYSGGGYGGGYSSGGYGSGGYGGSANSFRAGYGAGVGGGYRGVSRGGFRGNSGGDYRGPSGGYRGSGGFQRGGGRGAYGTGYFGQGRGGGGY

For the molecule `CCn1nc(C(=O)Nc2cc(F)cc(NS(C)(=O)=O)c2)cc1C` [Example 119, 1-ethyl-N-(3-fluoro-5-(methylsulfonamido)phenyl)-5-methyl-1H-pyrazole-3-carboxamide], the “DHX9 Biochemical Max Inhibition” value amounted to 82.1% and the IC50 came out at 1160 nM.
As for `CS(=O)(=O)Nc1cc(Cl)cc(NC(=O)c2cc(-c3ccccc3)c(CO)s2)c1` [Example 120, N-(3-chloro-5-(methylsulfonamido)phenyl)-5-(hydroxymethyl)-4-phenylthiophene-2-carboxamide], the “DHX9 Biochemical Max Inhibition” value is 72.5% and the IC50 was 8.9 nM.
For the molecule `CS(=N)(=O)Nc1cc(Br)cc(NC(=O)c2cc(-c3ccccn3)cs2)c1` (stereo not shown) [Example 121, N-(3-bromo-5-(methylsulfonoamidimidamido)phenyl)-4-(pyridin-2-yl)thiophene-2-carboxamide], the “DHX9 Biochemical Max Inhibition” value was 63.5% and the IC50 was found to be 40.6 nM.
In the same order, the values of `Cc1cccnc1-c1csc(C(=O)Nc2cc(Br)cc(NS(C)(=N)=O)c2)c1` (stereo not shown) [Example 122] are 67.7% and 28.8 nM.
The like results for `Cc1sc(C(=O)Nc2cc(Br)cc(NS(C)(=N)=O)c2)cc1-c1ccccn1` (stereo not shown) [Example 123] were, in that order, 72.8% and 14.8 nM.
On to `CS(=O)(=O)Nc1cc(Cl)cc(NC(=O)c2csc(-c3ccccc3)c2)c1` [Example 124, N-(3-chloro-5-(methylsulfonamido)phenyl)-5-phenylthiophene-3-carboxamide], for which the “DHX9 Biochemical Max Inhibition” value is given as 53.8% and the IC50 was 604 nM.
On to `CS(=O)(=O)Nc1cc(Cl)cc(NC(=O)c2coc(-c3ccccc3)c2)c1` [Example 125], for which the “DHX9 Biochemical Max Inhibition” value worked out at 56.7% and the IC50 turned out to be 330 nM.
As to `CS(=O)(=O)Nc1cc(Cl)cc(NC(=O)c2cnn(CCCO)c2)c1` [Example 126, N-(3-chloro-5-(methylsulfonamido)phenyl)-1-(3-hydroxypropyl)-1H-pyrazole-4-carboxamide], the “DHX9 Biochemical Max Inhibition” value amounted to 64.5% and the IC50 was determined as 182 nM.
As to `CS(=O)(=O)Nc1cc(Cl)cc(NC(=O)c2cnn(CCO)c2)c1` [Example 127], the “DHX9 Biochemical Max Inhibition” value turned out to be 66.4% and the IC50 stood at 138 nM.
The like results for `CS(=O)(=O)Nc1cc(Cl)cc(NC(=O)c2cnn(C3CC4(COC4)C3)c2)c1` [Example 128] were, in that order, 57.3% and 173 nM.
Take `Cc1cc(C(=O)Nc2cc(Cl)cc(NS(C)(=O)=O)c2)cn1-c1ccccc1` [Example 129, N-(3-chloro-5-(methylsulfonamido)phenyl)-5-methyl-1-phenyl-1H-pyrrole-3-carboxamide]: the “DHX9 Biochemical Max Inhibition” value is given as 66.4%.
For the molecule `Cc1cccnc1-n1cc(C(=O)Nc2cc(Cl)cc(NS(C)(=O)=O)c2)cc1C` [Example 130], the “DHX9 Biochemical Max Inhibition” value was found to be 70.4% and the IC50 was 39.6 nM.
The like results for `CS(=O)(=O)Nc1cc(Cl)cc(NC(=O)c2cnn(C3CCOCC3)c2)c1` [Example 131, N-(3-chloro-5-(methylsulfonamido)phenyl)-1-(tetrahydro-2H-pyran-4-yl)-1H-pyrazole-4-carboxamide] were, in that order, 55.9% and 151 nM.
The like results for `CCc1cn2cc(C(=O)Nc3cc(Cl)cc(NS(C)(=O)=O)c3)ccc2n1` [Example 132] were, in that order, 55.1% and 295 nM.
The like results for `CCc1nc2ccc(C(=O)Nc3cc(Cl)cc(NS(C)(=O)=O)c3)cn2c1N(C)C` [Example 133] were, in that order, 41.8% and 13600 nM.
As to `CS(=O)(=O)Nc1cc(Cl)cc(NC(=O)c2ccc3nccn3c2)c1` [Example 134], the “DHX9 Biochemical Max Inhibition” value is reported as 40% and the IC50 is 808 nM.
In the same order, the values of `CS(=O)(=O)Nc1cc(Cl)cc(NC(=O)c2cccc3ccoc23)c1` [Example 135] are 44.6% and 1070 nM.
Consider `CC(C)(C)OC(=O)N1CCC(n2cc(C(=O)Nc3cc(Cl)cc(NS(C)(=O)=O)c3)cn2)CC1` [Example 136], for which the “DHX9 Biochemical Max Inhibition” value was 59.6%.
For `Cn1nc(C(=O)Nc2cc(Cl)cc(NS(C)(=O)=O)c2)cc1-c1ccccc1OCc1ccccc1` [Example 138, 5-(2-(benzyloxy)phenyl)-N-(3-chloro-5-(methylsulfonamido)phenyl)-1-methyl-1H-pyrazole-3-carboxamide], the “DHX9 Biochemical Max Inhibition” value is given as 42.6% and the IC50 came to 13500 nM.
For `Cn1nc(-c2ccccc2OCc2ccccc2)cc1C(=O)Nc1cc(Cl)cc(NS(C)(=O)=O)c1` [Example 139], the “DHX9 Biochemical Max Inhibition” value worked out at 59.1% and the IC50 is 6650 nM.
In the case of `Cn1nc(C(=O)Nc2cc(Cl)cc(NS(C)(=O)=O)c2)cc1-c1ccccn1` [Example 140], the “DHX9 Biochemical Max Inhibition” value stood at 63.3% and the IC50 is 300 nM.
The like results for `Cn1nc(-c2ccccn2)cc1C(=O)Nc1cc(Cl)cc(NS(C)(=O)=O)c1` [Example 141] were, in that order, 54.9% and 442 nM.
`CC(c1ccccc1)n1cc(C(=O)Nc2cc(Cl)cc(NS(C)(=O)=O)c2)cn1` (stereo not shown) [Example 142, N-(3-chloro-5-(methylsulfonamido)phenyl)-1-(1-phenylethyl)-1H-pyrazole-4-carboxamide]: the “DHX9 Biochemical Max Inhibition” value is on record as 62% and the IC50 was 514 nM.
On to `Cc1cccnc1-c1cc(C(=O)Nc2cc(Cl)cc(NS(C)(=O)=O)c2)cn1CC(F)F` [Example 143, N-(3-chloro-5-(methylsulfonamido)phenyl)-1-(2,2-difluoroethyl)-5-(3-methylpyridin-2-yl)-1H-pyrrole-3-carboxamide], for which the “DHX9 Biochemical Max Inhibition” value worked out at 66.8%.
For the molecule `CC(C)(C)OC(=O)N1CC2(CC(n3cc(C(=O)Nc4cc(Cl)cc(NS(C)(=O)=O)c4)cn3)C2)C1` [Example 144, tert-butyl 6-(4-((3-chloro-5-(methylsulfonamido)phenyl)carbamoyl)-1H-pyrazol-1-yl)-2-azaspiro[3.3]heptane-2-carboxylate], the “DHX9 Biochemical Max Inhibition” value amounted to 65.1% and the IC50 was 224 nM.
Regarding `CS(=O)(=O)Nc1cc(Cl)cc(NC(=O)c2cnn(C3CCNCC3)c2)c1` [Example 145, N-(3-chloro-5-(methylsulfonamido)phenyl)-1-(piperidin-4-yl)-1H-pyrazole-4-carboxamide], the “DHX9 Biochemical Max Inhibition” value was determined as 67.9% and the IC50 was found to be 58 nM.
For `CS(=O)(=O)Nc1cc(Cl)cc(NC(=O)c2cnn(C3CC4(CNC4)C3)c2)c1` [Example 146], the “DHX9 Biochemical Max Inhibition” value was 71.9% and the IC50 came out at 30.4 nM.
The like results for `CS(=O)(=O)Nc1cc(Cl)cc(NC(=O)c2cnn(-c3cc(N4CCNCC4)ccn3)c2)c1` [Example 147] were, in that order, 76.5% and 6.3 nM.
The like results for `CC(=O)N1CCN(c2ccnc(-n3cc(C(=O)Nc4cc(Cl)cc(NS(C)(=O)=O)c4)cn3)c2)CC1` [Example 148, 1-(4-(4-acetylpiperazin-1-yl)pyridin-2-yl)-N-(3-chloro-5-(methylsulfonamido)phenyl)-1H-pyrazole-4-carboxamide] were, in that order, 63.3% and 18.5 nM.
